{
  "source": "paper PMC4357465",
  "about": "“Tool Compounds Robustly Increase Turnover of an Artificial Substrate by Glucocerebrosidase in Human Brain Lysates” (PLoS ONE, 2015)",
  "type_in_all_cases": "biochemical",
  "key": {"[1]": {"target": "T1, GBA1 in mouse brain lysates (Mus musculus, UniProt P17439)", "T1 construct": "Mouse brain was obtained from 4–7 month old C57BL/6J mice; from tissue; host or cells: brain of C57BL/6J mice", "T1 sequence (P17439 20-515)": "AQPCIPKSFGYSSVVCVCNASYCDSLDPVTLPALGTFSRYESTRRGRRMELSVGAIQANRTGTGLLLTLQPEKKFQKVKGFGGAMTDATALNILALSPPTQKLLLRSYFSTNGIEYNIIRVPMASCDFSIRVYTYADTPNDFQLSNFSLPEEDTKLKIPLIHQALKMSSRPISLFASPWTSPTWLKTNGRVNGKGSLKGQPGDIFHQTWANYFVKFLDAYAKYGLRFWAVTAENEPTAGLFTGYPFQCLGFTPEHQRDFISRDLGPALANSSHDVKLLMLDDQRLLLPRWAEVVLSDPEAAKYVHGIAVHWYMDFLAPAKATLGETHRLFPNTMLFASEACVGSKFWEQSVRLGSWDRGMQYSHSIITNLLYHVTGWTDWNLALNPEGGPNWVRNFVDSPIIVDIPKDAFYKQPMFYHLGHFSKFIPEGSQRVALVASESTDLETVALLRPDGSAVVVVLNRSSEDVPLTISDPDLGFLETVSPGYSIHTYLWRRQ", "experiment": "GBA1 tissue assay, 4MUG turnover in mouse brain lysates", "details": "mouse brain lysate 10 μg, with sodium taurocholate", "procedure": "(§1) Human cortex was acquired from brain banks (Tissue Solutions: http://www.tissue-solutions.com; Proteogenex: http://www.proteogenex.com). Human cortex samples were obtained from deceased aged Caucasian subjects without any diagnosis of neurodegenerative disorders. Mouse brain was obtained from 4–7 month old C57BL/6J mice. All mouse experiments were performed in accordance with the specifications of both the National Institutes of Health Guide for the Care and Use of Laboratory Animals, studies were approved by Pfizer’s Internal Animal Care and Use Committee (IACUC). […] Samples were then centrifuged at 20,000g for 15 minutes at 4°C. Supernatant was collected, and used for activity assays and Western blots. Protein concentration was determined using the Pierce BCA protein assay kit. Tissue lysates and pellets were stored at -80°C until use. For enzymatic activity assays, lysates were subjected only to one free-thaw cycle. Independent replicates were obtained using brain lysates from either different human subjects or different mice. […] Brain tissue lysates were diluted to 0.4 μg/ μl of protein in the same homogenization buffer, as described above. 25 μl of diluted lysate was added to the plate (Costar, 7200567). Lysates were then incubated on ice in the presence or absence of a compound for 30 minutes. 100 μl of assay buffer was then added to the plate. The same assay buffer was used as in the cell free/recombinant experiments and processed as described above."}, "[2]": {"system": "GBA1 in mouse brain lysates", "experiment": "GBA1 tissue assay, 4MUG turnover in mouse brain lysates", "details": "mouse brain lysate 10 μg, without sodium taurocholate", "procedure": "as §1"}, "[3]": {"target": "T2, recombinant GBA3 (Homo sapiens, UniProt Q9H227)", "T2 construct": "purchased R&D Systems 5969-GH-10", "T2 sequence (Q9H227 1-469)": "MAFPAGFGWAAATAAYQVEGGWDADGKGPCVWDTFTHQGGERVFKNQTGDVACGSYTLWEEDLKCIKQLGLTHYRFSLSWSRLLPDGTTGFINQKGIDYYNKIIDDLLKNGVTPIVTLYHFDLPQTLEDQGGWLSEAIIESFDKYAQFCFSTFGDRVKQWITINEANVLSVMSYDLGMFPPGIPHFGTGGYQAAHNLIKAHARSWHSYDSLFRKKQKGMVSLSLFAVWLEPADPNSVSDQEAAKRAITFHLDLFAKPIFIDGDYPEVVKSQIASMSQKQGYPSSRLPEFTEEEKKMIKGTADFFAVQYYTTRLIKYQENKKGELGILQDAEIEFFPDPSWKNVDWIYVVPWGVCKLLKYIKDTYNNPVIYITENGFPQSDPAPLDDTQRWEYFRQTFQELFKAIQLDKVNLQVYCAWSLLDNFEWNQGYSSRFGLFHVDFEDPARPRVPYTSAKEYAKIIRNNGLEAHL", "experiment": "cell-free 4MUG assay with recombinant GBA3", "details": "for less potent against GBA3 than GBA1: selectivity GBA1 over GBA3", "procedure": "After incubation, 100 μl of assay buffer was added to the plate. The assay buffer was composed of 0.1 M citric acid and 0.2 M sodium phosphate dibasic adjusted to pH = 5.4 unless stated otherwise (McIlvaine Buffer). […] For IC50 and EC50 experiments using compounds an assay buffer of pH 5.4 was used.\nThe substrate, 4-methylumbelliferyl β-D-glucopyranoside (4MUG, Sigma, M3633) was then added to the plate to a final concentration of 1.7 mM (25 μl). 4MUG was freshly solubilized in water at 37°C prior to each experiment. The recombinant protein, compound, assay buffer, and substrate were incubated at 37°C for 30 minutes.\nIn experiments directly comparing enzymatic activities of GBA1, GBA2 and GBA3 (S1 Fig., S2 Fig. c, d) the following conditions were used. […] A 10-fold intermediate solution of compound serial dilution was prepared in an assay buffer; half log dilutions were used. […] 2 mM solution of 4MUG was prepared in an assay buffer. To start the reaction, 4.5 μl/well of this solution was added to the enzyme plate and was incubated for 30 minutes at 37°C. To stop the reaction, a 1M glycine solution, adjusted to pH = 10 using 1M NaOH was used. […] To test the effect of sodium taurocholate (Sigma, T4009), the assay was performed using the same procedure described in this paragraph. The assay buffer contained either 0mM (same as above), 3 mM, 7 mM or 20 mM Sodium Taurocholate."}},
  "note": "Entries after “also recorded” stand apart in the source; their conditions may differ.",
  "data": [
    {"smiles": "O[C@H]1[C@H](O)[C@@H](O)[C@@H]2O[C@@H]2[C@@H]1O", "note": "[CBE]", "values": [
      {"measurement": "% inhibition: + NaTc", "setting": "[1]; 1mM", "value": "82% ± 1%"},
      {"measurement": "% inhibition: - NaTc", "setting": "[2]; 1mM", "value": "32% ± 4%"},
      {"measurement": "effect on activity of recombinant GBA3", "setting": "[3]; dose response, within the concentrations tested", "value": "did not inhibit; also recorded: does not alter activity"}
    ]},
    {"smiles": "OC[C@H]1CNC[C@@H](O)[C@@H]1O", "note": "[Isofagomine, isofagomine]", "values": [
      {"measurement": "inhibition at 1 µM", "setting": "[1]; 1 μM, read-out: % inhibition: + NaTc", "value": 82, "unit": "%"},
      {"measurement": "% inhibition: - NaTc", "setting": "[2]; 1 μM", "value": "21% ± 3%"},
      {"measurement": "effect on GBA3 activity", "setting": "[3]; 1 μM", "value": "did not have any substantial effect"},
      {"measurement": "less potent against GBA3 than GBA1", "setting": "[3]", "value": "> 100", "unit": "fold"},
      {"measurement": "less potent against GBA3 than GBA1", "setting": "[3]; listed as isofagomine", "value": "≥ 100", "unit": "fold"}
    ]}
  ]
}
